From patent publication US9340559B2, “Proteasome inhibitor delanzomib for use in the treatment of lupus” (Cephalon, Inc., priority 2011, dated 2016)
Where two headings read alike, the source gives them in different places.

Tested on: NZM mice
Type: in vivo, mouse

## CC(C)C[C@H](NC(=O)[C@@H](NC(=O)c1cccc(-c2ccccc2)n1)[C@@H](C)O)B(O)O [COMPOUND A, [(1R)-1-[[(2S,3R)-3-hydroxy-2-[6-phenyl-pyridine-2-carbonyl)amino]-1-oxobutyl]amino]-3-methylbutylboronic acid]
G1 3 mg/kg 1× wk ip
  p, serum MIG concentration vs G5 Bortezomib 0.3 mg/kg 1× wk ip: NS (NS = not significant (p > 0.05))
  p, serum MIG concentration vs G6 Bortezomib 0.3 mg/kg 2× wk ip: NS (NS = not significant (p > 0.05))
  p, serum MIG concentration vs G7 CTX 50 mg/kg 1× wk ip: p < 0.001
  p, serum MIG concentration vs G8 Dex 1.5 mg/kg 3× wk ip: NS (NS = not significant (p > 0.05))
  p, serum MIG concentration vs G9 Vehicle 1× wk ip: NS (NS = not significant (p > 0.05))
  p, serum TNFα concentration vs G5 Bortezomib 0.3 mg/kg 1× wk ip: NS (NS = not significant (p > 0.05))
  p, serum TNFα concentration vs G6 Bortezomib 0.3 mg/kg 2× wk ip: NS (NS = not significant (p > 0.05))
  p, serum TNFα concentration vs G7 CTX 50 mg/kg 1× wk ip: NS (NS = not significant (p > 0.05))
  p, serum TNFα concentration vs G8 Dex 1.5 mg/kg 3× wk ip: p <0.001
  p, serum TNFα concentration vs G9 Vehicle 1× wk ip: NS (NS = not significant (p > 0.05))
G1 3 mg/kg ip, 1× wk
  Cytokine IL-12 AUC, percent change vs vehicle: −83%
  Cytokine IL-13 AUC, percent change vs vehicle: −27%
  Cytokine IL-17A AUC, percent change vs vehicle: −41%
  Cytokine IP-10 AUC, percent change vs vehicle: +17%
  Cytokine MIG AUC, percent change vs vehicle: −55%
  Cytokine TNFα AUC, percent change vs vehicle: −61%
G1: 3 mg/kg ip once per week
  serum IL-12p40/p70 decrease vs vehicle: 83%
G2 3 mg/kg 2× wk ip
  p, serum IL-12p40/p70 concentration vs G5 Bortezomib 0.3 mg/kg 1× wk ip: NS (NS = not significant (p > 0.05))
  p, serum IL-12p40/p70 concentration vs G6 Bortezomib 0.3 mg/kg 2× wk ip: NS (NS = not significant (p > 0.05))
  p, serum IL-12p40/p70 concentration vs G7 CTX 50 mg/kg 1× wk ip: NS (NS = not significant (p > 0.05))
  p, serum IL-12p40/p70 concentration vs G8 Dex 1.5 mg/kg 3× wk ip: NS (NS = not significant (p > 0.05))
  p, serum IL-12p40/p70 concentration vs G9 Vehicle 1× wk ip: p < 0.01
  p, serum IL-13 concentration vs G5 Bortezomib 0.3 mg/kg 1× wk ip: NS (NS = not significant (p > 0.05))
  p, serum IL-13 concentration vs G6 Bortezomib 0.3 mg/kg 2× wk ip: NS (NS = not significant (p > 0.05))
  p, serum IL-13 concentration vs G7 CTX 50 mg/kg 1× wk ip: P < 0.001
  p, serum IL-13 concentration vs G8 Dex 1.5 mg/kg 3× wk ip: NS (NS = not significant (p > 0.05))
  p, serum IL-13 concentration vs G9 Vehicle 1× wk ip: NS (NS = not significant (p > 0.05))
  p, serum IL-17A concentration vs G5 Bortezomib 0.3 mg/kg 1× wk ip: NS (NS = not significant (p > 0.05))
  p, serum IL-17A concentration vs G6 Bortezomib 0.3 mg/kg 2× wk ip: NS (NS = not significant (p > 0.05))
  p, serum IL-17A concentration vs G7 CTX 50 mg/kg 1× wk ip: p < 0.001
  p, serum IL-17A concentration vs G8 Dex 1.5 mg/kg 3× wk ip: NS (NS = not significant (p > 0.05))
  p, serum IL-17A concentration vs G9 Vehicle 1× wk ip: NS (NS = not significant (p > 0.05))
  p, serum IP-10 concentration vs G5 Bortezomib 0.3 mg/kg 1× wk ip: NS (NS = not significant (p > 0.05))
  p, serum IP-10 concentration vs G6 Bortezomib 0.3 mg/kg 2× wk ip: NS (NS = not significant (p > 0.05))
  p, serum IP-10 concentration vs G7 CTX 50 mg/kg 1× wk ip: p < 0.001
  p, serum IP-10 concentration vs G8 Dex 1.5 mg/kg 3× wk ip: NS (NS = not significant (p > 0.05))
  p, serum IP-10 concentration vs G9 Vehicle 1× wk ip: NS (NS = not significant (p > 0.05))
  p, serum MIG concentration vs G5 Bortezomib 0.3 mg/kg 1× wk ip: NS (NS = not significant (p > 0.05))
  p, serum MIG concentration vs G6 Bortezomib 0.3 mg/kg 2× wk ip: NS (NS = not significant (p > 0.05))
  p, serum MIG concentration vs G7 CTX 50 mg/kg 1× wk ip: p < 0.001
  p, serum MIG concentration vs G8 Dex 1.5 mg/kg 3× wk ip: NS (NS = not significant (p > 0.05))
  p, serum MIG concentration vs G9 Vehicle 1× wk ip: NS (NS = not significant (p > 0.05))
  p, serum TNFα concentration vs G5 Bortezomib 0.3 mg/kg 1× wk ip: NS (NS = not significant (p > 0.05))
  p, serum TNFα concentration vs G6 Bortezomib 0.3 mg/kg 2× wk ip: NS (NS = not significant (p > 0.05))
  p, serum TNFα concentration vs G7 CTX 50 mg/kg 1× wk ip: NS (NS = not significant (p > 0.05))
  p, serum TNFα concentration vs G8 Dex 1.5 mg/kg 3× wk ip: p <0.001
  p, serum TNFα concentration vs G9 Vehicle 1× wk ip: NS (NS = not significant (p > 0.05))
G2 3 mg/kg ip, 2× wk
  Cytokine IL-12 AUC, percent change vs vehicle: −67%
  Cytokine IL-13 AUC, percent change vs vehicle: −33%
  Cytokine IL-17A AUC, percent change vs vehicle: −89%
  Cytokine IP-10 AUC, percent change vs vehicle: −30%
  Cytokine MIG AUC, percent change vs vehicle: −66%
  Cytokine TNFα AUC, percent change vs vehicle: −57%
G2: 3 mg/kg ip twice weekly
  serum IL-12p40/p70 decrease vs vehicle: 67%
Both once and twice weekly doses, p<0.001
  serum TNFα compared to Dex: decreased serum TNFα over that of Dex
Once and twice weekly groups
  serum IL-12 decrease vs vehicle, range over the substance's groups: 67-83%
p<0.001 vs CTX, but not to DEX
  serum CXCL9/MIG as compared to CTX: decreased
Treatment groups
  IL-13 serum levels compared to vehicle: No significant change
  IL-17A serum levels compared to vehicle: No significant change
Twice weekly dose
  serum CXCL10/IP-10 decrease vs vehicle: 30%
